{"source": "patent US20230062612A1", "about": "“SAFETY SWITCHES FOR REGULATION OF GENE EXPRESSION” (Sana Biotechnology, Inc., priority 2020, published 2023)", "format_in_all_cases": "cell-based", "key": {"[1]": {"test_system": "EFS-CD-CD47 transduced cells", "assay": "Cytosine deaminase safety switch: killing of transduced iPSCs by 5-fluorocytosine", "details": "0.01-1000 μM 5-FC; increasing concentrations; FIG. 16 (middle)", "from_the_text": "To assess the ability of cytosine deaminase to induce cell death in an […] manner, an EFS-cytosine deaminase (CD)-CD47 bicistronic cassette was transduced into wild type iPSCs by lentiviral viral transduction (see FIG. 16, top). In this cassette, a nucleic acid encoding CD is located upstream of a nucleic acid encoding CD47. A 2A sequence located between the CD and CD47 nucleic acids to ensure the two proteins are separate following translation. An EFS promoter controls expression of CD and CD47.\nEFS-CD-CD47 transduced cells and control EFS-CD transduced cells were contacted with 0.01-1000 μM concentrations of 5-fluorocytosine (5-FC) (“5FC”). Cytosine deaminase deaminates 5-FC to toxic 5-fluorouracil (5-FU), thereby killing the cells."}, "[2]": {"test_system": "human CD47", "assay": "CD47 expression in control EFS-CD47 transduced and wild-type iPSCs with Shield-1", "from_the_text": "To assess the ability of the LID system to promote CD47 degradation, expression constructs were made containing the following expression cassettes: a) an EF1a core promoter (EFS) operably linked to a human CD47 gene fused to a nucleic acid encoding the LID degron domain (EFS-CD47-LID, see FIG. 6, top); and b) a control containing the EFS promoter operable linked to the human CD47 gene alone (EFS-CD47). iPSCs were transduced with either the EFS-CD47-LID expression cassette or control EFS-CD47 expression cassette by lentiviral transduction.\n(§1) The EFS-CD47-LID transduced cells, EFS-CD47 transduced cells, and wild-type control cells were incubated in the presence of 0-1,000 nM of Shield-1 for 24 hours and CD47 expression was assessed using flow cytometry."}, "[3]": {"test_system": "human CD47 fused to LID degron domain", "assay": "LID degron CD47 degradation in EFS-CD47-LID transduced iPSCs, flow cytometry", "details": "0-1,000 nM Shield-1 for 24 hours, increasing doses", "from_the_text": "In the LID system, the protein of interest (POI e.g., CD47) is fused to a LID degron domain (also referred to as “LID domain” or “LID degron”). The LID degron domain includes the FK506- and rapamycin-binding protein (FKBP) and a peptide degron (e.g., TRGVEEVAEGVVLLRRRGN) fused to the C-terminus of the FKBP (FIG. 5). […] The peptide degron is capable of binding to the FKBP active site and is not detected by cellular degradation proteins when sequestered in the active site, thus rendering it a cryptic degron. In the absence of Shield-1, a small molecule, the POI-LID fusion protein is stable. When present, Shield-1 binds tightly to FKBP, thereby displacing the peptide degron and inducing rapid degradation of the LID and any fused partner protein (e.g., CD47). […]\nas §1"}, "[4]": {"test_system": "human CD47 fused to SMASH tag", "assay": "SMASH degron CD47 degradation in EFS-SMASH-CD47 transduced iPSCs, flow cytometry", "details": "0-10 μM asunaprevir for 48 hours, increasing doses", "from_the_text": "Small-molecule assisted shutoff, or SMASH, is a system using the hepatitis C virus (HCV) nonstructural protein 3 (NS3) protease and elements in the NS4A protein to effectively shut off expression of a CD47 protein fused to a SMASH-tag with clinically tested HCV protease inhibitors (FIG. 2). In the absence of protease inhibitor (asunaprevir), a cryptic degron sequence is excised, leading to an unmodified gene product. By addition of asunaprevir, the NS3 protease is inhibited, leading to the degradation of newly synthesized CD47 proteins fused to the degron sequence.\nCD47 expression analysis: After incubation, cells are washed and stained with an anti-CD47 antibody conjugated to Alexa-647 (Biolegend) to detect surface expression of CD47. More specifically, 1×10^6 cells are harvested and resuspended in 100 μl cell staining-buffer (PBS, 0.1% BSA, 0.1% sodium azide) and incubated with 5 μl Alexa-Fluor 647 labelled anti-CD47 antibody for 30 min on ice. Cells are washed in cell staining buffer and subsequently analyzed by flow cytometry. […]"}, "[5]": {"test_system": "human CD47", "assay": "CD47 expression in control EFS-CD47 transduced and wild-type iPSCs with asunaprevir", "details": "for expression of CD47: 0-10 μM asunaprevir for 48 hours", "description": "CD47 expression analysis: After incubation, cells are washed and stained with an anti-CD47 antibody conjugated to Alexa-647 (Biolegend) to detect surface expression of CD47. More specifically, 1×10^6 cells are harvested and resuspended in 100 μl cell staining-buffer (PBS, 0.1% BSA, 0.1% sodium azide) and incubated with 5 μl Alexa-Fluor 647 labelled anti-CD47 antibody for 30 min on ice. Cells are washed in cell staining buffer and subsequently analyzed by flow cytometry.\nTo assess the ability of the SMASH system to promote CD47 degradation, expression constructs were made containing the following expression cassettes: a) an EF1 a core promoter (EFS) operably linked to a human CD47 gene fused to a nucleic acid encoding a SMASH tag (EFS-CD47-SMASH, see FIG. 4, top); and b) a control containing the EFS promoter operably linked to the human CD47 gene alone (EFS-CD47). iPSCs were transduced with either the EFS-SMASH-CD47 expression cassette or control EFS-CD47 expression cassette by lentiviral transduction. The EFS-SMASH-CD47 transduced cells, EFS-CD47 transduced cells, and wild-type control cells were incubated in the presence of 0-10 μM of asunaprevir for 48 hours and CD47 expression was assessed using flow cytometry, as explained above."}}}
{"smiles": "Nc1nc(=O)[nH]cc1F", "note": "[5-FC, 5-fluorocytosine]", "values": [{"measurement": "killing of CD47 expressing EFS-CD-CD47 transduced cells", "setting": "[1]", "value": "observed"}]}
{"smiles": "CC[C@H](C(=O)N1CCCC[C@H]1C(=O)O[C@H](CCc1ccc(OC)c(OC)c1)c1cccc(OCCN2CCOCC2)c1)c1cc(OC)c(OC)c(OC)c1", "note": "[Shield-1]", "values": [{"measurement": "expression of CD47", "setting": "[2]; EFS-CD47 (\"CD47 only\") cells without LID, 0-1,000 nM for 24 hours", "value": "generally unaltered"}, {"measurement": "off-target effects on CD47 expression", "setting": "[2]; EFS-CD47 cells, no significant CD47 knockdown, 0-1,000 nM for 24 hours", "value": "no off-target effects"}, {"measurement": "expression of CD47", "setting": "[2]; wildtype (\"WT\") cells, 0-1,000 nM Shield-1 for 24 hours", "value": "remained at the baseline"}, {"measurement": "reduction in CD47 expression", "setting": "[3]", "value": "≥ 50", "unit": "%"}]}
{"smiles": "C=C[C@@H]1C[C@]1(NC(=O)[C@@H]1C[C@@H](Oc2ncc(OC)c3ccc(Cl)cc23)CN1C(=O)[C@@H](NC(=O)OC(C)(C)C)C(C)(C)C)C(=O)NS(=O)(=O)C1CC1", "note": "[asunaprevir]", "values": [{"measurement": "reduction in CD47 expression", "setting": "[4]", "value": "≥ 50", "unit": "%"}, {"measurement": "expression of CD47", "setting": "[5]; EFS-CD47 (\"CD47 only\") cells without SMASH", "value": "generally unaltered"}, {"measurement": "off-target effects on CD47 expression", "setting": "[5]; EFS-CD47 cells, no significant CD47 knockdown, 0-10 μM for 48 hours", "value": "no off-target effects"}, {"measurement": "expression of CD47", "setting": "[5]; wildtype (\"WT\") cells", "value": "remained at the baseline"}]}
